Consider 19 compounds from patent publication US20200339548A1, “PYRIMIDINE DERIVATIVES AND THEIR USE FOR THE TREATMENT OF CANCER” (Adorx Therapeutics Limited, priority 2017, published 2020).

The target in experiment [1] is T1, Adenosine A2a receptor (Homo sapiens, UniProt P29274).
T1 construct: expressed in transfected cells; host or cells: CHO cell membranes
In words: Adenosine receptor TR-FRET binding assay, A2a. The note with it: displacement of 100 nM CA200645, CHO cell membranes. In outline:
(§1)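 Competition TR-FRET binding in CHO cell membranes expressing terbium-labelled human receptors, displacing fluorescent XAC (CA200645; 30 nM for A2b, 100 nM for A1, A2a, A3); 2 h at room temperature with saponin buffer, 1% DMSO. 665/620 nm ratio; non-specific with 10 μM XAC; Ki by Cheng–Prusoff from IC50.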

Experiment [2] deals with T2, Adenosine A1 receptor (Homo sapiens, UniProt P30542).
T2 construct: expressed in transfected cells; host or cells: CHO cell membranes
T2 sequence (P30542 1-326): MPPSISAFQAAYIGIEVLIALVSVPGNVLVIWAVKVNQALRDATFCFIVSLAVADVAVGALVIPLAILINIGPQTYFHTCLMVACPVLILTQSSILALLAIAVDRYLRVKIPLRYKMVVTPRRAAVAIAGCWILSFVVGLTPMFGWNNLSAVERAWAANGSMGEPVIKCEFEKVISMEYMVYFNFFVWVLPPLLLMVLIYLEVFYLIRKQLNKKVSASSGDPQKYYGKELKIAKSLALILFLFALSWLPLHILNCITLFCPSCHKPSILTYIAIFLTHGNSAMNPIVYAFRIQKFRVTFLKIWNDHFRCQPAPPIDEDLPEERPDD
The experiment can be described thus: Adenosine receptor TR-FRET binding assay, A1. The note with it: Table 9, further testing; displacement of 100 nM CA200645, CHO cell membranes. In outline: as §1

The test system of experiment [3] is Human PBMCs. In words: CD3/CD28 stimulated IL-2 release NECA reversal assay. It is filed as cell-based. The note with it: Homo sapiens, PBMC, read-out: IL-2 release NECA reversal IC50 (nM), 1 uM NECA, 24 hours. The protocol:
Blood is drawn from healthy volunteers using sodium citrate as the anticoagulant (0.3% final concentration). […] 50 μl diluted compound mix is added to the cells, to obtain final concentrations of 1 ug/ml CD28 antibody, 1 uM NECA and 0.003-10 μM adenosine receptor antagonist. Assay plates are incubated for 24 hours at 37° C. in a humidified incubator.

Experiment [4] has as its target T3, Adenosine A3 receptor (Homo sapiens, UniProt P0DMS8).
T3 construct: expressed in transfected cells; host or cells: CHO cell membranes
T3 sequence (P0DMS8 1-318): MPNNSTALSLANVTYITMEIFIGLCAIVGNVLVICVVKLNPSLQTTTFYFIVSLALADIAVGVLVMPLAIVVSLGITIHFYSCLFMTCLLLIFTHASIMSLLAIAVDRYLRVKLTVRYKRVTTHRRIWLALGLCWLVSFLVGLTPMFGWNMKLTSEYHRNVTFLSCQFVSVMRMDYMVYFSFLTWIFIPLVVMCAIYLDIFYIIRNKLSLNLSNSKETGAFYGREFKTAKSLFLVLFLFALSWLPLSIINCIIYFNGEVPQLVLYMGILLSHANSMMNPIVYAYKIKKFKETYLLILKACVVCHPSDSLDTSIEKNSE
The experiment can be described thus: Adenosine receptor TR-FRET binding assay, A3. The method in brief:
as §1

The target of experiment [5] is T4, Adenosine A2b receptor (Homo sapiens, UniProt P29275).
T4 construct: expressed in transfected cells; host or cells: CHO cell membranes
T4 sequence (P29275 1-332): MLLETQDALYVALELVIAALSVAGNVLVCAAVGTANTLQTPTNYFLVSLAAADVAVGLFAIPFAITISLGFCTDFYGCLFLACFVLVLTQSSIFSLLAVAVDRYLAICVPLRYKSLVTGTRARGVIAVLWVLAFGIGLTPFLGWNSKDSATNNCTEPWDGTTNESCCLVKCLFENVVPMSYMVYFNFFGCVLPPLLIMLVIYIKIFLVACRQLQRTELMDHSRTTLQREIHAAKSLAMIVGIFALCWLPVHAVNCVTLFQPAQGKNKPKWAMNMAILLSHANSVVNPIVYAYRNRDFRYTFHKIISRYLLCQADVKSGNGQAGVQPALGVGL
In words: Adenosine receptor TR-FRET binding assay, A2b. The note with it: Table 9, further testing; displacement of 30 nM CA200645, CHO cell membranes. The method in brief: as §1

Where [6] appears, read: Table 9, further testing, displacement of 100 nM CA200645, CHO cell membranes, read-out: A3 Ki.

Where two headings read alike, the source gives them in different places.

T1 sequence (P29274 whole entry): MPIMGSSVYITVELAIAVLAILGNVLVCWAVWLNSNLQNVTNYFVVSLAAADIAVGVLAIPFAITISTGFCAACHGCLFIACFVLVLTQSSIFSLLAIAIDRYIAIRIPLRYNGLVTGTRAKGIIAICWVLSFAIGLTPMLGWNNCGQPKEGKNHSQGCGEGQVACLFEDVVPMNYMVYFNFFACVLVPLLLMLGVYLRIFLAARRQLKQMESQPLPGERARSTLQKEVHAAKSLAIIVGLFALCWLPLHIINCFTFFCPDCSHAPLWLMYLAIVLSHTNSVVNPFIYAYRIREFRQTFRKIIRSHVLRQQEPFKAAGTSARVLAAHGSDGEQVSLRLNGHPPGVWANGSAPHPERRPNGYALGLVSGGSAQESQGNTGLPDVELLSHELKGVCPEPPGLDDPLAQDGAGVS

As to `Cc1cccnc1CNC(=O)c1cnc(-c2cccc(C#N)c2)nc1N` [Example 12, 4-Amino-2-(3-cyanophenyl)-N-[(3-methyl-2-pyridyl)methyl]pyrimidine-5-carboxamide], the inhibition constant (Ki) in experiment [1] (Table 8, Cheng and Prusoff) came to 27 nM; in experiment [1] (Table 9, further testing), 27 nM; in experiment [2] it was 17 nM; in experiment [4] (setting [6]), 1030 nM; in experiment [5], 1560 nM. In experiment [3], the half-inhibitory concentration (IC50) was 1200 nM.

Consider `COc1cccc(F)c1CNC(=O)c1cnc(-c2cccc(F)c2)nc1N` [Example 5.2, 4-Amino-N-[(2-fluoro-6-methoxy-phenyl)methyl]-2-(3-fluorophenyl)pyrimidine-5-carboxamide], for which the Ki in experiment [1] (Table 8, Cheng and Prusoff) came to 20 nM; in experiment [1] (Table 9, further testing), 20 nM; in experiment [2] it was 66 nM; in experiment [5] it was 113 nM. Further, the IC50 in experiment [3] worked out at 1920 nM.

For the compound `COc1ccccc1CNC(=O)c1cnc(-c2cccc(F)c2)nc1N` [Example 10.8, 4-Amino-2-(3-fluorophenyl)-N-[(2-methoxyphenyl)methyl]pyrimidine-5-carboxamide], the Ki in experiment [1] (Table 8, Cheng and Prusoff) was determined as 27 nM; in experiment [1] (Table 9, further testing) it was 27 nM; in experiment [2], 143 nM; in experiment [4] (setting [6]) it was 230 nM; in experiment [5], 1750 nM. Further, in experiment [3], the IC50 was 2000 nM.

For the compound `Nc1nc(-c2ccco2)ncc1C(=O)NCc1c(Cl)cccc1Cl` [Example 5.16, 4-Amino-N-[(2,6-dichlorophenyl)methyl]-2-(2-furyl)pyrimidine-5-carboxamide], the inhibition constant Ki in experiment [1] (Table 8, Cheng and Prusoff) came to 0.93 nM; in experiment [1] (Table 9, further testing) it was 0.64 nM; in experiment [2] it was 1350 nM; in experiment [5], 297 nM. Moreover, in experiment [3], the half-inhibitory concentration (IC50) is 102 nM.

Take `Cc1cccnc1CNC(=O)c1nnc(-c2ccco2)nc1N` [Example 2, 5-Amino-3-(2-furyl)-N-[(3-methyl-2-pyridyl)methyl]-1,2,4-triazine-6-carboxamide]: the Ki in experiment [1] (Table 8, Cheng and Prusoff) stood at 0.9 nM; in experiment [1] (Table 9, further testing), 0.79 nM; in experiment [2], 318 nM; in experiment [4] (setting [6]), 50 nM; in experiment [5] it was 95 nM. In experiment [3], the 50% inhibitory concentration (IC50) turned out to be 408 nM.

Turning to `Nc1nc(-c2ccco2)ncc1C(=O)NCc1ccccc1O` [Example 11.2, 4-amino-2-(2-furyl)-N-[(2-hydroxyphenyl)methyl]pyrimidine-5-carboxamide], the inhibition constant (Ki) in experiment [1] (Table 8, Cheng and Prusoff) came to 1.2 nM; in experiment [1] (Table 9, further testing) it was 0.71 nM; in experiment [2], 787 nM; in experiment [5], 50 nM. Moreover, the IC50 in experiment [3] turned out to be 71 nM.

`Cc1cccnc1CNC(=O)c1nnc(-c2cccc(F)c2)nc1N` [Example 7, 5-Amino-3-(3-fluorophenyl)-N-[(3-methyl-2-pyridyl)methyl]-1,2,4-triazine-6-carboxamide]: the inhibition constant Ki was 11 nM in experiment [1] (Table 8, Cheng and Prusoff); 12 nM in experiment [1] (Table 9, further testing); 42 nM in experiment [2]; 13 nM in experiment [4] (setting [6]); 383 nM in experiment [5]. Moreover, in experiment [3], the concentration for half-maximal inhibition (IC50) is 830 nM.

In the case of `COc1ccccc1CNC(=O)c1cnc(-c2ccco2)nc1N` [Example 5.20, 4-Amino-2-(2-furyl)-N-[(2-methoxyphenyl)methyl]pyrimidine-5-carboxamide], the inhibition constant (Ki) in experiment [1] (Table 8, Cheng and Prusoff) worked out at 1.1 nM; in experiment [1] (Table 9, further testing) it was 0.95 nM; in experiment [2], 426 nM; in experiment [4] (setting [6]) it was 757 nM; in experiment [5], 1190 nM. For the same compound, the IC50 in experiment [3] worked out at 122 nM.

On to `Nc1nc(-c2ccco2)ncc1C(=O)NC1Cc2ccccc2C1` [Example 5.24, 4-Amino-2-(2-furyl)-N-indan-2-yl-pyrimidine-5-carboxamide], for which the Ki in experiment [1] (Table 8, Cheng and Prusoff) was found to be 2.4 nM; in experiment [1] (Table 9, further testing) it was 2.6 nM; in experiment [2] it was 1270 nM; in experiment [5] it was 1600 nM. Moreover, the IC50 in experiment [3] came out at 364 nM.

Turning to `CCOc1cccc(F)c1CNC(=O)c1cnc(-c2cccc(F)c2)nc1N` [Example 5.3, 4-Amino-N-[(2-ethoxy-6-fluoro-phenyl)methyl]-2-(3-fluorophenyl)pyrimidine-5-carboxamide], the inhibition constant (Ki) in experiment [1] (Table 8, Cheng and Prusoff) came to 20 nM; in experiment [1] (Table 9, further testing) it was 20 nM; in experiment [5], 341 nM. Further, in experiment [3], the IC50 stood at 1540 nM.

As for `Nc1nc(-c2ccco2)ncc1C(=O)NC1CCc2ccccc21` (stereo not shown) [Example 5.23, 4-Amino-2-(2-furyl)-N-indan-1-yl-pyrimidine-5-carboxamide], the Ki in experiment [1] (Table 8, Cheng and Prusoff) amounted to 10 nM; in experiment [1] (Table 9, further testing) it was 10 nM; in experiment [2], 4750 nM. The IC50 in experiment [3] was 381 nM.

`Cn1ncnc1CNC(=O)c1c(N)nc(-c2cccc(C#N)c2)nc1OCCF` [Example 24.7, 4-Amino-2-(3-cyanophenyl)-6-(2-fluoroethoxy)-N-[(2-methyl-1,2,4-triazol-3-yl)methyl]pyrimidine-5-carboxamide]: the inhibition constant Ki in experiment [1] (Table 9, further testing) was found to be 8.1 nM; in experiment [2] it was 145 nM; in experiment [4] (setting [6]), 1610 nM. The IC50 in experiment [3] came to 212 nM.

In the case of `Nc1nc(-c2cccc(F)c2)ncc1C(=O)NCc1cccc(F)c1` [Example 10.3, 4-Amino-2-(3-fluorophenyl)-N-[(3-fluorophenyl)methyl]pyrimidine-5-carboxamide], the inhibitory constant (Ki) was found to be 180 nM in experiment [1] (Table 8, Cheng and Prusoff); 180 nM in experiment [1] (Table 9, further testing); 598 nM in experiment [2]; 504 nM in experiment [4] (setting [6]); 1360 nM in experiment [5].

For `Cc1cccnc1CNC(=O)c1c(N)nc(-c2ccco2)nc1Cl` [Example 13, 4-Amino-6-chloro-2-(2-furyl)-N-[(3-methyl-2-pyridyl)methyl]pyrimidine-5-carboxamide], the Ki in experiment [1] (Table 8, Cheng and Prusoff) amounted to 20 nM; in experiment [1] (Table 9, further testing), 20 nM; in experiment [2], 314 nM; in experiment [4] (setting [6]), 1190 nM; in experiment [5], 3890 nM.

`Nc1nc(-c2ccco2)ncc1C(=O)NCc1ncccc1C(F)(F)F` [Example 5.30, 4-Amino-2-(2-furyl)-N-[[3-(trifluoromethyl)-2-pyridyl]methyl]pyrimidine-5-carboxamide]: the inhibition constant (Ki) in experiment [1] (Table 9, further testing) amounted to 2.7 nM; in experiment [2] it was 4750 nM; in experiment [4] it was 2300 nM; in experiment [5], 2350 nM.

Consider `COCCOc1nc(-c2ccco2)nc(N)c1C(=O)NCc1ncccc1C` [Example 20.6, 4-Amino-2-(2-furyl)-6-(2-methoxyethoxy)-N-[(3-methyl-2-pyridyl)methyl]pyrimidine-5-carboxamide], for which the Ki came to 0.54 nM in experiment [1] (Table 9, further testing); 19 nM in experiment [2]; 5.6 nM in experiment [4] (setting [6]); 382 nM in experiment [5].

As for `Cc1ccc(CNC(=O)c2cnc(-c3cccc(F)c3)nc2N)cc1` [Example 10, 4-Amino-2-(3-fluorophenyl)-N-(p-tolylmethyl)pyrimidine-5-carboxamide], the inhibition constant (Ki) in experiment [1] (Table 8, Cheng and Prusoff) came to 796 nM; in experiment [1] (Table 9, further testing) it was 796 nM; in experiment [2], 4440 nM; in experiment [4] (setting [6]) it was 1800 nM; in experiment [5], 8490 nM.

Take `Cc1cccc(CNC(=O)c2cnc(-c3ccco3)nc2N)c1` [Example 5.34, 4-Amino-2-(2-furyl)-N-(m-tolylmethyl) pyrimidine-5-carboxamide]: the Ki in experiment [1] (Table 9, further testing) was 10 nM; in experiment [2], 1040 nM; in experiment [4] (setting [6]), 1910 nM; in experiment [5] it was 1410 nM.

In the case of `Nc1nc(-c2cccc(F)c2)ncc1C(=O)NCc1cc(F)cc(F)c1` [Example 10.7, 4-Amino-N-[(3,5-difluorophenyl)methyl]-2-(3-fluorophenyl)pyrimidine-5-carboxamide], the Ki in experiment [1] (Table 8, Cheng and Prusoff) was 104 nM; in experiment [1] (Table 9, further testing) it was 104 nM; in experiment [2], 238 nM; in experiment [4] (setting [6]) it was 778 nM; in experiment [5] it was 2420 nM.
